In brackets after ≈: the same amount, converted by molar mass.
Columns and labels:
[1] = system: MatTek's MelanoDerm skin epidermal equivalent tissues (MEL-300-B; NHEK and NHM); test: Skin Epidermal Equivalents Model as a Skin Lightening Test (ΔL); format: cell-based, human; conditions: topical daily 8 days, measured day 9
Source text: Skin epidermal equivalent tissues are available commercially from MatTek's MelanoDerm™ System and were used for the following tests. MatTek's MelanoDerm™ System consists of normal, human-derived epidermal keratinocytes (NHEK) and melanocytes (NHM) which have been cultured to form a multilayered, highly differentiated model of the human epidermis. Specifically, MEL-300-B tissues, each 9 mm in diameter were used in the following tests.
The test materials prepared in an appropriate vehicle and tested concentrations were applied topically to the skin model daily and the experiment lasted for 8 days. Measurement was taken on day 9.
The macroscopic and microscopic visual tissue darkening end points were measured by taking pictures with a digital camera. The Degree of Lightness for each tissue (L-Value) was measured using a spectrophotometer (Konica Minolta CM-2600d). The ΔL (degree of lightness as compared to control) for each test sample is calculated as per following formula:
ΔL=L-value of treated sample−L-value of control sample.

[2] = system: skin epidermal tissues (MelanoDerm); test: Cell Viability Test (MTT) on skin epidermal tissues; format: cell-based, human; conditions: at tested concentrations; ≧30% reduction of cell viability = significant
Protocol: Cell Viability of the tissue during experiment was evaluated using the MTT assay described as follows. The MTT Tissue Viability Assay is a colorimetric assay system that measures the reduction of a yellow Methylthiazolyldiphenyl-tetrazolium bromide (MTT) into an insoluble purple product by the mitochondria of viable cells. The skin epidermal tissues used previously to determine degree of lightness for each test material and of untreated tissues were used to determine percent viable cells remaining at the end of the experiment. The skin epidermal tissues after degree of lightness test were incubated with MTT reagent for 3 h. After incubation extraction buffer is added to lyse the cells and allowed to continue overnight. Samples are read using a plate reader at a wavelength of 570 nm and compared against untreated control and expressed in % Cell Viability as of control. A reduction of ≧30% cell viability as of control consider as a significant indication of cell cytotoxicity caused by the test materials. The amount of purple color produced is directly proportional to the number of viable cells.
Cytotoxicity potential was determined by MTT assay for all extracts and calculated as % reduction of cell viability as compared to control, wherein >30% reduction of cell viability constitute significant cytotoxicity issues.

[3] = system: NF-κB promoter activity in H9c2 cells; test: NF-κB Inhibition Assay (NF-κB promoter luciferase, TNFα stimulated); format: cell-based; conditions: Rattus norvegicus
Protocol: The NF-κB promoter assay is conducted as follows: rat cardiac myoblasts H9c2 cells were purchased from ATCC (Manassas, Va.). Cultures were maintained in Dulbecco's modified Eagle's medium (DMEM, Invitrogen Life Technologies, Carlsbad, Calif.) supplemented with 10% fetal bovine serum, 100 units/ml penicillin, and 50 μg/ml streptomycin (Invitrogen life technologies, Carlsbad, Calif.). Typically, 1×10^4 cells grown in 96-well plates were transiently transfected with 0.45 μg total DNA per well using Lipofectamine 2000 (Invitrogen life technologies, Carlsbad, Calif.). In all transfections, a construct with the thymidine kinase promoter and the Renilla luciferase reporter gene (pRL-TK, Promega, Madison, Wis.) was included as an internal control in addition to the luciferase promoter. One day after transfection, cells were treated with the extracts at indicated concentrations and stimulated with 100 ng/mL of Tumor Necrosis Factor-a (TNFα, Sigma-Aldrich, St Louis, Mo.) for approximately 24 hours before they were lysed for luciferase assays, using Dual-Luciferase Reporter System from Promega (Madison, Wis.), following manufacturer's protocol. Briefly, the firefly luciferase activity was measured first (representing NF-κB promoter activity), followed by the renilla luciferase (internal control), using luminometer LMAX, from Molecular Devices (Sunnyvale, Calif.). […]

In the case of OC12COC(c3ccc4c(c3)OCO4)C1COC2c1ccc2c(c1)OCO2 (centres unmarked) [Paulownin], the “Degree of Lightness (ΔL)” value ([1]; Conc. 0.5%) was 0.69, the “Degree of Lightness (ΔL)” value ([1]; Conc. 1%) was 1.52 and the “Degree of Lightness (ΔL)” value ([1]; Conc. 2%) was 2.79. The “Cytotoxicity potential by MTT assay” value [2] was “did not show any significant cytotoxicity” and the IC50 [3] was 148 µg/mL (≈ 400 µM).

— US20160038392A1, “COMPOSITIONS COMPRISING PAULOWNIN AND/OR PAULOWNIA EXTRACTS AND USES THEREOF” (Johnson & Johnson Consumer Inc., priority 2010, published 2016)
